Results on 54 compounds are retold here after patent US8697694B2, “Substituted pyridine and pyrimidine derivatives and their use in treating viral infections” (priority 2008, dated 2014).

For orientation: EC90 means the point of the concentration-response curve where the effect stands at 90%.

The subject of the first test is HCV replicon cells. The experiment in a line: Cell-based HCV replicon assay (replicon RNA level by real time PCR, Taqman). The conditions noted are these: HCV replicon cells, replicon RNA level by real time PCR, harvested day 3; read-out: EC90 (μM) range. An outline of the steps:
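Readout: ΔCT between NS5B replicon RNA and GAPDH by real-time RT-PCR in lysates harvested on day 3, fitted sigmoidally; EC50 at ΔCT=1, EC90 at ΔCT=3.2. Compounds tested at ten 2-fold dilutions from 25 μM to 1 μM start, 10% FBS, 0.5% DMSO.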
For orientation: In antiviral work, replicon cells carry a viral genome segment that copies itself.
Regarding `Cc1nc(N[C@H](C)c2ccc(OC(F)(F)F)cc2)nc(N[C@@H]2C[C@H](C(C)O)[C@@H](O)[C@H]2O)c1-c1nc2ccccc2s1` (single isomer, unassigned) [Example 1646], the EC90 lay in the range of 0.5 to 5 µM.

The same test, now with this note: Hepatitis C virus, 72 h, HCV replicon cells, harvested day 3, replicon RNA by real time PCR; given as number; read-out: EC90 (μM) range.
With `Cc1nc(NCC(F)(F)F)nc(N[C@@H]2C[C@H](COC(=O)N3CCOCC3)[C@@H](O)[C@H]2O)c1-c1nc2ccccc2s1` [Example 63], the EC90 was 0.45 µM.
On the same count and under the same terms, to `Cc1nc(NCCCF)nc(N[C@@H]2C[C@H](CO)[C@@H](O)[C@H]2O)c1-c1nc2ccccc2s1` [Example 127] belongs 0.7 µM; to `CCCOc1cc2cc(-c3c(C)nc(NCC4CC4)nc3N[C@@H]3C[C@H](CO)[C@@H](O)[C@H]3O)oc2cn1` [Example 62], 0.7 µM; to `CCCOc1cc2cc(-c3c(C)nc(NCC(F)(F)F)nc3N[C@@H]3C[C@H](CO)[C@@H](O)[C@H]3O)oc2c(C)n1` [Example 34], 0.1 µM.

The same test, now with this note: Hepatitis C virus, 72 h, HCV replicon cells, harvested day 3, replicon RNA by real time PCR; reported as range class; read-out: EC90 (μM) range.
For `Nc1nc(Cl)c(-c2cc3cc(F)cc(F)c3o2)c(N[C@@H]2C[C@H](CO)[C@@H](O)[C@H]2O)n1` [Example 170], the EC90 is above 5 µM.
On the same count and under the same terms, the value for `COCc1cc2cc(-c3c(Cl)nc(N)nc3N[C@@H]3C[C@H](CO)[C@@H](O)[C@H]3O)oc2c(C)n1` [Example 311] was below 0.5 µM.
The same measure, in the same setting: the value for `Cc1nccc2cc(-c3c(Cl)nc(N)nc3N[C@@H]3C[C@H](CO)[C@@H](O)[C@H]3O)oc12` [Example 305] was below 0.5 µM; that for `CO[C@@H](C)CNc1nc(C)c(-c2nc3ccccc3s2)c(N[C@@H]2C[C@H](CO)[C@@H](O)[C@H]2O)n1` [Example 229] was below 0.5 µM; that for `Nc1nc(Cl)c(-c2ccco2)c(N[C@@H]2C[C@H](CO)[C@@H](O)[C@H]2O)n1` [Example 152] was above 5 µM.
Still for that read-out and setting: the value for `Nc1nc(Cl)c(-c2cc3ccccc3s2)c(N[C@@H]2C[C@H](CO)[C@@H](O)[C@H]2O)n1` [Example 102] was above 5 µM; that for `Cc1nc(N)nc(N[C@@H]2C[C@H](CO)[C@@H](O)[C@H]2O)c1-c1nc2ccccc2s1` [Example 119] was below 0.5 µM.
As to `Cc1nc(NCC(F)(F)F)nc(N[C@@H]2C[C@H](CO)[C@@H](O)[C@H]2O)c1-c1nc2ccccc2s1` [Example 125], the EC90 was below 0.5 µM.
For the compound `Cc1nc(NCCF)nc(N[C@@H]2C[C@H](CO)[C@@H](O)[C@H]2O)c1-c1nc2ccccc2s1` [Example 216], the EC90 was in the range of 0.5 to 5 µM.
Turning to `Nc1nc(N[C@@H]2C[C@H](CO)[C@@H](O)[C@H]2O)c(-c2ccccn2)c(-c2ccccn2)n1` [Example 162], the EC90 was above 5 µM.
Still for that read-out and setting: to `OC[C@H]1C[C@@H](Nc2nc(NCC(F)(F)F)nc(Cl)c2-c2nc3ccccc3s2)[C@H](O)[C@@H]1O` [Example 124] belongs below 0.5 µM.

Still in this test, the particulars now being: Hepatitis C virus, 72 h, HCV replicon cells, harvested on day 3, replicon RNA by real time PCR; calculated EC90 reported as range class; read-out: EC90 (μM) range.
Consider `CO[C@H](C)CNc1nc(Cl)c(-c2nc3ccccc3s2)c(N[C@@H]2C[C@H](CO)[C@@H](O)[C@H]2O)n1` [Example 230], for which the EC90 is below 0.5 µM.
With `Cc1cc2cc(-c3c(Cl)nc(NCC4CCCCC4)nc3N[C@@H]3C[C@H](CO)[C@@H](O)[C@H]3O)oc2c(C)n1` [Example 460], the EC90 was below 0.5 µM.
`CCc1cc2cc(-c3c(C)nc(NCCC(F)(F)F)nc3N[C@@H]3C[C@H](CO)[C@@H](O)[C@H]3O)oc2cn1` [Example 521]: the EC90 is below 0.5 µM.
In the case of `Cc1cccc(CNc2nc(C)c(-c3nc4ccccc4s3)c(N[C@@H]3C[C@H](CO)[C@@H](O)[C@H]3O)n2)c1` [Example 486], the EC90 was below 0.5 µM.
On to `Cc1nc(NCCN2CCOCC2)nc(N[C@@H]2C[C@H](CO)[C@H]3OC(C)(C)O[C@H]32)c1-c1nc2ccccc2s1` [Example 248], for which the EC90 was below 0.5 µM.
In the case of `CCOCCNc1nc(C)c(-c2cc3cc(C(F)(F)F)ncc3o2)c(N[C@@H]2C[C@H](CO)[C@@H](O)[C@H]2O)n1` [Example 138], the EC90 is below 0.5 µM.
Same read-out and setting: the value for `Cc1nc(NCc2cccc(C(F)(F)F)c2)nc(N[C@@H]2C[C@H](CO)[C@@H](O)[C@H]2O)c1-c1nc2ccccc2s1` [Example 240] was below 0.5 µM; that for `CCCCCNc1nc(C)c(-c2cc3cc(C)ncc3o2)c(N[C@@H]2C[C@H](CO)[C@@H](O)[C@H]2O)n1` [Example 453] was below 0.5 µM; that for `CCOC(=O)NCCNc1nc(C)c(-c2nc3ccccc3s2)c(N[C@@H]2C[C@H](CO)[C@@H](O)[C@H]2O)n1` [Example 256] was below 0.5 µM.
Take `Cc1nc(NC(CF)CF)nc(N[C@@H]2C[C@H](CO)[C@H]3OC(C)(C)O[C@H]32)c1-c1nc2ccccc2s1` [Example 136]: the EC90 was 0.5 to 5 µM.

The same test, now with this note: Hepatitis C virus, 72 h, HCV replicon cells, replicon RNA level by real time PCR (Taqman), day 3; calculated EC90; read-out: EC90 (μM) range.
Consider `Cc1nc(NCC(F)(F)F)nc(N[C@@H]2C[C@H](CO)[C@H]3OC(C)(C)O[C@H]32)c1-c1nc2ncccc2o1` [Example 2006], for which the EC90 is 0.5 to 5 µM.

The same test, now with this note: Hepatitis C virus, 72 h, HCV replicon cells, replicon RNA level by real time PCR (Taqman), harvested on day 3; calculated EC90 reported as range class; read-out: EC90 (μM) range.
As to `Cc1nc(NC(C)c2ccco2)nc(N[C@@H]2C[C@H](CO)[C@@H](O)[C@H]2O)c1-c1nc2ccccc2s1` (stereo partly drawn) [Example 1102], the EC90 was 0.5 to 5 µM.
On the same count and under the same terms, the value for `Cc1nc(N(C)Cc2ccccc2)nc(N[C@@H]2C[C@H](CO)[C@@H](O)[C@H]2O)c1-c1nc2cnccc2s1` [Example 1313] was 0.5 to 5 µM; that for `COCCNc1nc(N)c(-c2nc3ccccc3s2)c(N[C@@H]2C[C@H](CO)[C@@H](O)[C@H]2O)n1` [Example 1302] was 0.5 to 5 µM; that for `Cc1nc(NCC(C)(C)C)nc(N[C@@H]2C[C@H](CO)[C@@H](O)[C@H]2O)c1-c1ccc2ccccc2n1` [Example 1322] was above 5 µM.
Take `COCCNc1nc(C)c(-c2nc3cc(OC(F)F)c(OC(F)F)cc3s2)c(N[C@@H]2C[C@H](CO)[C@H]3OC(C)(C)O[C@H]32)n1` [Example 1003]: the EC90 is above 5 µM.
The same measure, in the same setting: the value for `COCCNc1nc(C)c(-c2nc3cc(OC)ccc3s2)c(N[C@@H]2C[C@H](CO)[C@@H](O)[C@H]2O)n1` [Example 1009] was 0.5 to 5 µM; that for `Cc1nc(NCc2cccc(O)c2)nc(N[C@@H]2C[C@H](CO)[C@@H](O)[C@H]2O)c1-c1nc2ccccc2s1` [Example 1212] was below 0.5 µM; that for `Cc1nc(NCC(F)(F)F)nc(N[C@@H]2C[C@H](CO)[C@@H](O)[C@H]2O)c1-c1cc2cc(OCC(C)C)nc(C)c2o1` [Example 1055] was 0.5 to 5 µM.
On the same count and under the same terms, to `Cc1nc(NCc2ccco2)nc(N[C@@H]2C[C@H](CO)[C@H]3OC(C)(C)O[C@H]32)c1-c1nc2ccccc2s1` [Example 1109] belongs 0.5 to 5 µM.
Regarding `Cc1nc(N(C)Cc2ccccc2)nc(N[C@@H]2C[C@H](CO)[C@H]3OC(C)(C)O[C@H]32)c1-c1nc2ccccc2s1` [Example 1115], the EC90 is above 5 µM.
Take `COc1cccc2sc(-c3c(C)nc(NCC4CC4)nc3N[C@@H]3C[C@H](C(C)O)[C@@H](O)[C@H]3O)nc12` (stereo partly drawn) [Example 1073]: the EC90 is 0.5 to 5 µM.
As for `Cc1nc(NCC2CC2)nc(O[C@@H]2C[C@H](CO)[C@@H](O)[C@H]2O)c1-c1nc2ccccc2s1` [Example 1132], the EC90 is above 5 µM.
For `Cc1nc(NC(C)c2ccccn2)nc(N[C@@H]2C[C@H](CO)[C@@H](O)[C@H]2O)c1-c1nc2ccccc2s1` (stereo partly drawn) [Example 1202], the EC90 was 0.5 to 5 µM.

Staying with this test, now noted: Hepatitis C virus, 72 h, HCV replicon cells, replicon RNA level by real time PCR, harvested day 3; read-out: EC90 (μM) range.
`Cc1nc(NCC(F)(F)F)nc(N[C@@H]2C[C@H](C(O)C(C)C)[C@@H](O)[C@H]2O)c1-c1nc2ccccc2s1` (stereo partly drawn) [Example 1638]: the EC90 lay within 0.5 to 5 µM.
The same measure, in the same setting: to `Cc1nc(NCC2CC2)nc(N[C@@H]2C[C@H](CO)[C@@H](O)[C@H]2O)c1-c1nc2c(CC(C)C)nccc2s1` [Example 1370] belongs below 0.5 µM.
The same measure, in the same setting: the value for `Cc1ccc([C@H](C)Nc2nc(C)c(-c3nc4cnccc4s3)c(N[C@@H]3CC[C@@H](O)[C@@]3(C)O)n2)cc1` [Example 1810] was below 0.5 µM; that for `Cc1nc(NC2CC2)nc(N[C@@H]2C[C@H](C(C)O)[C@@H](O)[C@H]2O)c1-c1nc2c(C)nccc2s1` (stereo partly drawn) [Example 1398] was below 0.5 µM.
On the same count and under the same terms, to `CCOc1ccc(CCNc2nc(C)c(-c3nc4cnccc4s3)c(N[C@@H]3C[C@H](CO)[C@@H](O)[C@H]3O)n2)cc1` [Example 1705] belongs below 0.5 µM.
`Cc1nc(N(C)CC(F)(F)F)nc(N[C@@H]2C[C@H](CN(C)S(C)(=O)=O)[C@@H](O)[C@H]2O)c1-c1nc2ccccc2s1` [Example 1378]: the EC90 was above 5 µM.
On the same count and under the same terms, the value for `Cc1nc(NCC(F)(F)F)nc(N[C@@H]2C[C@H](CN(C)S(C)(=O)=O)[C@@H](O)[C@H]2O)c1-c1nc2ccccc2s1` [Example 1379] was below 0.5 µM.
Regarding `CCC(O)[C@H]1C[C@@H](Nc2nc(NCC(F)(F)F)nc(C)c2-c2nc3ccccc3s2)[C@H](O)[C@@H]1O` (stereo partly drawn) [Example 1637], the EC90 was 0.5 to 5 µM.
Same read-out and setting: to `CO[C@@H]1[C@H](O)[C@@H](CO)C[C@H]1Nc1nc(NCC(F)(F)F)nc(C)c1-c1nc2ccccc2o1` [Example 1354] belongs below 0.5 µM.
Still for that read-out and setting: the value for `CC(=O)OC[C@H]1C[C@@H](Nc2nc(N)nc(C)c2-c2nc3ccccc3s2)[C@H](O)[C@@H]1O` [Example 1915] was above 5 µM; that for `C=CCNc1nc(C)c(C2=NC3=C=CC=CC3S2)c(N[C@@H]2C[C@H](CO)[C@@H](O)[C@H]2O)n1` (stereo partly drawn) [Example 1906] was 0.5 to 5 µM; that for `Cc1nc(NCC2CC2)nc(N[C@@H]2C[C@H](CO)[C@@H](O)[C@H]2O)c1-c1cc2ccccc2s1` [Example 1603] was above 5 µM.
Take `Cc1nc(NC(C)c2cccnc2)nc(N[C@@H]2C[C@H](CO)[C@@H](O)[C@H]2O)c1-c1nc2ccccc2s1` (stereo partly drawn) [Example 1802]: the EC90 fell in the range of 0.5 to 5 µM.

The same test, now with this note: Hepatitis C virus, 72 h, read-out: EC90 (μM) range.
Turning to `Cc1nc(C#N)nc(N[C@@H]2C[C@H](CO)[C@H]3OC(C)(C)O[C@H]32)c1-c1nc2ccccc2s1` [Example 1901], the EC90 is above 5 µM.
